{"source": "patent US9006433B2", "about": "“Substituted pyrimidines” (Merck Sharp & Dohme Corp., priority 2010, dated 2015)"}
{"target": "T1, PHD2 (Homo sapiens, UniProt Q9GZT9)", "T1 construct": "FLAG-tagged full length PHD2 expressed in and purified from baculovirus-infected Sf9 cells; FLAG; made in house; host or cells: baculovirus-infected Sf9 cells", "T1 sequence (Q9GZT9 whole entry, species assumed)": "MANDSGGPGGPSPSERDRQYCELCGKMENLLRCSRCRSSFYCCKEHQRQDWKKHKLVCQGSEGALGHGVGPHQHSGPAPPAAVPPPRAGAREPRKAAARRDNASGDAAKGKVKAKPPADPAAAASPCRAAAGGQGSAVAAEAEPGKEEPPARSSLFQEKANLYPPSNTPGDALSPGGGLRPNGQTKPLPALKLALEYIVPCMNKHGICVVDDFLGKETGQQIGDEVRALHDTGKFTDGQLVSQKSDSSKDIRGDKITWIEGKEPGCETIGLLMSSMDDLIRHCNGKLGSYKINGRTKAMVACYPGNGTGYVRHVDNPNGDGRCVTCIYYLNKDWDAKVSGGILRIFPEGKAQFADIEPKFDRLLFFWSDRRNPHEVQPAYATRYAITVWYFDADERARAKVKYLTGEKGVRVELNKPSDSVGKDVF", "test": "PHD2 inhibition assay (time resolved fluorescence, HIF-1α peptide hydroxylation / VHL complex detection)", "type": "biochemical", "settings": "FLAG-tagged full length PHD2; 0.2 μM 2-oxoglutarate, 0.5 μM HIF-1α peptide", "description": "To each well of a 96-well plate was added 1 μL of test compound in DMSO and 20 μl of assay buffer (50 mM Iris pH 7.4/0.01% Tween-20/0.1 mg/ml bovine serum albumin/10 μM ferrous sulfate/1 mM sodium ascorbate/20 μg/ml catalase) containing 0.15 μg/ml FLAG-tagged full length PHD2 expressed in and purified from baculovirus-infected Sf9 cells. After a 30 min preincubation at room temperature, the enzymatic reactions were initiated by the addition of […] of substrates (final concentrations of 0.2 μM 2-oxoglutarate and 0.5 μM HIF-1α peptide biotinyl-DLDLEMLAPYIPMDDDFQL (SEQ ID NO:1)). After 2 hr at room temperature, the reactions were terminated and signals were developed by the addition of a 25 μL quench/detection mix to a final concentration of 1 mM ortho-phenanthroline, 0.1 mM EDTA, 0.5 nM anti-(His)6 LANCE reagent (Perkin-Elmer Life Sciences), 100 nM AF647-labeled streptavidin (Invitrogen), and 2 μg/ml (His)-6-VHL complex (S. Tan(2001) Protein Expr. Purif. 21, 224-234). The ratio of time resolved fluorescence signals at 665 and 620 nm was determined, and percent inhibition was calculated relative to an uninhibited control sample run in parallel.", "units": {"IC50": "nM"}}
{"smiles": "O=C(Nc1cnc(-n2cccn2)nc1O)C(c1ccccc1)c1ccccc1", "note": "[Compound 2-1, N-(4-hydroxy-2-(1H-pyrazol-1-yl)pyrimidin-5-yl)-2,2-diphenylacetamide]", "IC50": "0.5 to 20"}
{"smiles": "O=C(Nc1cnc(-n2cccn2)nc1O)c1ccccc1Cl", "note": "[Compound 3-1, 2-chloro-N-(4-hydroxy-2-(1H-pyrazol-1-yl)pyrimidin-5-yl)benzamide]", "IC50": "0.5 to 20"}
{"smiles": "O=C(Nc1cnc(-n2cccn2)nc1O)c1cccc(Cl)c1", "note": "[Compound 3-2, 3-chloro-N-(4-hydroxy-2-(1H-pyrazol-1-yl)pyrimidin-5-yl)benzamide]", "IC50": "0.5 to 20"}
{"smiles": "O=C(Nc1cnc(-n2cccn2)nc1O)c1ccc(Cl)cc1", "note": "[Compound 3-3, 4-chloro-N-(4-hydroxy-2-(1H-pyrazol-1-yl)pyrimidin-5-yl)benzamide]", "IC50": "20 to 100"}
{"smiles": "O=C(Nc1cnc(-n2cccn2)nc1O)c1cccc(C(F)(F)F)c1", "note": "[Compound 3-4, 3-(trifluoromethyl)-N-(4-hydroxy-2-(1H-pyrazol-1-yl)pyrimidin-5-yl)benzamide]", "IC50": "0.5 to 20"}
{"smiles": "O=C(Nc1cnc(-n2cccn2)nc1O)c1ccc(C(F)(F)F)cc1", "note": "[Compound 3-5, 4-(trifluoromethyl)-N-(4-hydroxy-2-(1H-pyrazol-1-yl)pyrimidin-5-yl)benzamide]", "IC50": "20 to 100"}
{"smiles": "O=C(Cc1ccc2ccccc2c1)Nc1cnc(-n2cccn2)nc1O", "note": "[Compound 3-6, N-(4-hydroxy-2-(1H-pyrazol-1-yl)pyrimidin-5-yl)-2-(naphthalen-3-yl)acetamide]", "IC50": "0.5 to 20"}
{"smiles": "N#Cc1ccccc1C(=O)Nc1cnc(-n2cccn2)nc1O", "note": "[Compound 3-7, 2-cyano-N-(4-hydroxy-2-(1H-pyrazol-1-yl)pyrimidin-5-yl)benzamide]", "IC50": "100 to 10000"}
{"smiles": "N#Cc1cccc(C(=O)Nc2cnc(-n3cccn3)nc2O)c1", "note": "[Compound 3-8, 3-cyano-N-(4-hydroxy-2-(1H-pyrazol-1-yl)pyrimidin-5-yl)benzamide]", "IC50": "20 to 100"}
{"smiles": "N#Cc1ccc(C(=O)Nc2cnc(-n3cccn3)nc2O)cc1", "note": "[Compound 3-9, 4-cyano-N-(4-hydroxy-2-(1H-pyrazol-1-yl)pyrimidin-5-yl)benzamide]", "IC50": "20 to 100"}
{"smiles": "O=C(Nc1cnc(-n2cccn2)nc1O)c1ccccc1C(F)(F)F", "note": "[Compound 3-10, 2-(trifluoromethyl)-N-(4-hydroxy-2-(1H-pyrazol-1-yl)pyrimidin-5-yl)benzamide]", "IC50": "0.5 to 20"}
{"smiles": "COc1ccccc1C(=O)Nc1cnc(-n2cccn2)nc1O", "note": "[Compound 3-11, N-(4-hydroxy-2-(1H-pyrazol-1-yl)pyrimidin-5-yl)-2-methoxybenzamide]", "IC50": "20 to 100"}
{"smiles": "COc1cccc(C(=O)Nc2cnc(-n3cccn3)nc2O)c1", "note": "[Compound 3-12, N-(4-hydroxy-2-(1H-pyrazol-1-yl)pyrimidin-5-yl)-3-methoxybenzamide]", "IC50": "20 to 100"}
{"smiles": "COc1ccc(C(=O)Nc2cnc(-n3cccn3)nc2O)cc1", "note": "[Compound 3-13, N-(4-hydroxy-2-(1H-pyrazol-1-yl)pyrimidin-5-yl)-4-methoxybenzamide]", "IC50": "20 to 100"}
{"smiles": "CS(=O)(=O)c1ccccc1C(=O)Nc1cnc(-n2cccn2)nc1O", "note": "[Compound 3-14, N-(4-hydroxy-2-(1H-pyrazol-1-yl)pyrimidin-5-yl)-2-(methylsulfonyl)benzamide]", "IC50": "100 to 10000"}
{"smiles": "CS(=O)(=O)c1cccc(C(=O)Nc2cnc(-n3cccn3)nc2O)c1", "note": "[Compound 3-15, N-(4-hydroxy-2-(1H-pyrazol-1-yl)pyrimidin-5-yl)-3-(methylsulfonyl)benzamide]", "IC50": "20 to 100"}
{"smiles": "CS(=O)(=O)c1ccc(C(=O)Nc2cnc(-n3cccn3)nc2O)cc1", "note": "[Compound 3-16, N-(4-hydroxy-2-(1H-pyrazol-1-yl)pyrimidin-5-yl)-4-(methylsulfonyl)benzamide]", "IC50": "20 to 100"}
{"smiles": "O=C(Nc1cnc(-n2cccn2)nc1O)c1ccccc1-c1ccccc1", "note": "[Compound 3-17, N-[4-hydroxy-2-(1H-pyrazol-1-yl)pyrimidin-5-yl]biphenyl-2-carboxamide]", "IC50": "20 to 100"}
{"smiles": "O=C(Nc1cnc(-n2cccn2)nc1O)c1cccc(-c2ccccc2)c1", "note": "[Compound 3-18, N-[4-hydroxy-2-(1H-pyrazol-1-yl)pyrimidin-5-yl]biphenyl-3-carboxamide]", "IC50": "20 to 100"}
{"smiles": "O=C(Nc1cnc(-n2cccn2)nc1O)c1ccc(-c2ccccc2)cc1", "note": "[Compound 3-19, N-[4-hydroxy-2-(1H-pyrazol-1-yl)pyrimidin-5-yl]biphenyl-4-carboxamide]", "IC50": "0.5 to 20"}
{"smiles": "O=C(Nc1cnc(-n2cccn2)nc1O)c1ccccc1Oc1ccccc1", "note": "[Compound 3-20, N-(4-hydroxy-2-(1H-pyrazol-1-yl)pyrimidin-5-yl)-2-phenoxybenzamide]", "IC50": "20 to 100"}
{"smiles": "O=C(Nc1cnc(-n2cccn2)nc1O)c1cccc(Oc2ccccc2)c1", "note": "[Compound 3-21, N-(4-hydroxy-2-(1H-pyrazol-1-yl)pyrimidin-5-yl)-3-phenoxybenzamide]", "IC50": "0.5 to 20"}
{"smiles": "O=C(Nc1cnc(-n2cccn2)nc1O)c1ccc(Oc2ccccc2)cc1", "note": "[Compound 3-22, N-(4-hydroxy-2-(1H-pyrazol-1-yl)pyrimidin-5-yl)-4-phenoxybenzamide]", "IC50": "0.5 to 20"}
{"smiles": "O=C(Cc1ccccc1Cl)Nc1cnc(-n2cccn2)nc1O", "note": "[Compound 3-23, 2-(2-chlorophenyl)-N-(4-hydroxy-2-(1H-pyrazol-1-yl)pyrimidin-5-yl)acetamide]", "IC50": "0.5 to 20"}
{"smiles": "O=C(Cc1cccc(Cl)c1)Nc1cnc(-n2cccn2)nc1O", "note": "[Compound 3-24, 2-(3-chlorophenyl)-N-(4-hydroxy-2-(1H-pyrazol-1-yl)pyrimidin-5-yl)acetamide]", "IC50": "0.5 to 20"}
{"smiles": "O=C(Cc1ccc(Cl)cc1)Nc1cnc(-n2cccn2)nc1O", "note": "[Compound 3-25, 2-(4-chlorophenyl)-N-(4-hydroxy-2-(1H-pyrazol-1-yl)pyrimidin-5-yl)acetamide]", "IC50": "0.5 to 20"}
{"smiles": "N#Cc1cccc(CC(=O)Nc2cnc(-n3cccn3)nc2O)c1", "note": "[Compound 3-26, 2-(3-cyanophenyl)-N-(4-hydroxy-2-(1H-pyrazol-1-yl)pyrimidin-5-yl)acetamide]", "IC50": "0.5 to 20"}
{"smiles": "O=C(Cc1ccccc1C(F)(F)F)Nc1cnc(-n2cccn2)nc1O", "note": "[Compound 3-27, 2-(2-(trifluoromethyl)phenyl)-N-(4-hydroxy-2-(1H-pyrazol-1-yl)pyrimidin-5-yl)acetamide]", "IC50": "0.5 to 20"}
{"smiles": "O=C(Cc1cccc(C(F)(F)F)c1)Nc1cnc(-n2cccn2)nc1O", "note": "[Compound 3-28, 2-(3-(trifluoromethyl)phenyl)-N-(4-hydroxy-2-(1H-pyrazol-1-yl)pyrimidin-5-yl)acetamide]", "IC50": "0.5 to 20"}
{"smiles": "O=C(Cc1ccc(C(F)(F)F)cc1)Nc1cnc(-n2cccn2)nc1O", "note": "[Compound 3-29, 2-(4-(trifluoromethyl)phenyl)-N-(4-hydroxy-2-(1H-pyrazol-1-yl)pyrimidin-5-yl)acetamide]", "IC50": "0.5 to 20"}
{"smiles": "COc1ccccc1CC(=O)Nc1cnc(-n2cccn2)nc1O", "note": "[Compound 3-30, N-(4-hydroxy-2-(1H-pyrazol-1-yl)pyrimidin-5-yl)-2-(2-methoxyphenyl)acetamide]", "IC50": "0.5 to 20"}
{"smiles": "COc1cccc(CC(=O)Nc2cnc(-n3cccn3)nc2O)c1", "note": "[Compound 3-31, N-(4-hydroxy-2-(1H-pyrazol-1-yl)pyrimidin-5-yl)-2-(3-methoxyphenyl)acetamide]", "IC50": "0.5 to 20"}
{"smiles": "COc1ccc(CC(=O)Nc2cnc(-n3cccn3)nc2O)cc1", "note": "[Compound 3-32, N-(4-hydroxy-2-(1H-pyrazol-1-yl)pyrimidin-5-yl)-2-(4-methoxyphenyl)acetamide]", "IC50": "0.5 to 20"}
{"smiles": "CC(C(=O)Nc1cnc(-n2cccn2)nc1O)c1ccccc1", "note": "(stereo not drawn) [Compound 3-33, N-(4-hydroxy-2-(1H-pyrazol-1-yl)pyrimidin-5-yl)-2-phenylpropanamide]", "IC50": "0.5 to 20"}
{"smiles": "CCC(C(=O)Nc1cnc(-n2cccn2)nc1O)c1ccccc1", "note": "(stereo not drawn) [Compound 3-34, N-(4-hydroxy-2-(1H-pyrazol-1-yl)pyrimidin-5-yl)-2-phenylbutanamide]", "IC50": "0.5 to 20"}
{"smiles": "CC(C)C(C(=O)Nc1cnc(-n2cccn2)nc1O)c1ccccc1", "note": "(stereo not drawn) [Compound 3-35, N-(4-hydroxy-2-(1H-pyrazol-1-yl)pyrimidin-5-yl)-3-methyl-2-phenylbutanamide]", "IC50": "20 to 100"}
{"smiles": "CCC(C)C(C(=O)Nc1cnc(-n2cccn2)nc1O)c1ccccc1", "note": "(stereo not drawn) [Compound 3-36, N-(4-hydroxy-2-(1H-pyrazol-1-yl)pyrimidin-5-yl)-3-methyl-2-phenylpentanamide]", "IC50": "0.5 to 20"}
{"smiles": "CC(C)(C(=O)Nc1cnc(-n2cccn2)nc1O)c1ccccc1", "note": "[Compound 3-37, N-(4-hydroxy-2-(1H-pyrazol-1-yl)pyrimidin-5-yl)-2-methyl-2-phenylpropanamide]", "IC50": "0.5 to 20"}
{"smiles": "O=C(Nc1cnc(-n2cccn2)nc1O)C1(c2ccccc2)CC1", "note": "[Compound 3-38, N-(4-hydroxy-2-(1H-pyrazol-1-yl)pyrimidin-5-yl)-1-phenylcyclopropanecarboxamide]", "IC50": "20 to 100"}
{"smiles": "O=C(Cc1cccc2ccccc12)Nc1cnc(-n2cccn2)nc1O", "note": "[Compound 3-39, N-(4-hydroxy-2-(1H-pyrazol-1-yl)pyrimidin-5-yl)-2-(naphthalen-1-yl)acetamide]", "IC50": "0.5 to 20"}
{"smiles": "O=C(Cc1ccc2c(c1)OCO2)Nc1cnc(-n2cccn2)nc1O", "note": "[Compound 3-40, 2-(benzo[d][1,3]dioxol-5-yl)-N-(4-hydroxy-2-(1H-pyrazol-1-yl)pyrimidin-5-yl)acetamide]", "IC50": "0.5 to 20"}
{"smiles": "O=C(Cc1ccncc1)Nc1cnc(-n2cccn2)nc1O", "note": "[Compound 3-41, N-(4-hydroxy-2-(1H-pyrazol-1-yl)pyrimidin-5-yl)-2-(pyridin-4-yl)acetamide]", "IC50": "20 to 100"}
